Test results reported in patent publication EP0962457B1, “Piperidones as tachykinin antagonists” (Pfizer Limited, priority 1998, dated 1999).
Where two headings read alike, the source gives them in different places.

Experiments:
[1] = In vitro metabolic stability: disappearance half-life in human liver microsomes (HLM/37); assay type: in vitro ADME; conditions: human liver microsomes HLM/37, test compound 1µM, 37°C, 60 minutes, NADPH, read-out: Metabolic stability (t½)
Method: The in vitro metabolic stability of the compounds of the formula (I) and their salts can be tested by incubating samples for 1 hour at 37°C in the presence of a "moderate activity" (re. concentrations of cytochrome p450 enzymes present) human liver microsomal preparation (prepared from human liver homogenates). The samples were analysed by HPLC at regular intervals during this one hour period and the half-life (t½) determined (in minutes).
The metabolic stability of the compounds of Tables 1 and 2 was determined in vitro by the method described on page 10 according to the following experimental protocol.
Transplant-quality human liver tissue was obtained from the International Institute for the Advancement of Medicine (Exton, PA). The donors ranged in age from 26 to 65 years old and included 3 males and 3 females. Hepatic microsomes were prepared from individual human livers by the process of differential centrifugation. Briefly, the liver tissue was homogenised in 50mM Tris HCI (pH 7.4) containing 250mM sucrose and then centrifuged at 9,000G for 20 minutes to remove the cell debris and nuclear fraction. The supernatant layer was removed and further centrifuged at 105,000G for 60 minutes to pellet the microsomal fraction. […] The cytochrome P450 content was determined using the method of Omura, T., Sato, R., J. Biol. Chem., 239, 2379-2385 (1964) and the protein concentration was determined using the method of Lowry et al., J. Biol. Chem., 193, 265-275 (1951), with bovine serum albumin as the protein standard.
The metabolic activities of the 6 major drug metabolising cytochrome P450 enzymes were determined for HLM/37 and compared to values obtained from a bank of individual human livers (n = 19). […]
Aliquots (100µl) were removed from the incubation at 0, 3, 5, 10, 15, 20, 30, 45 and 60 minutes after the addition of NADPH. […] After centrifugation 150µl aliquots were removed and 120µl of each of these analysed by HPLC on a Hypersil HS C18 5µ column (50x4.6mm) with a mobile phase of methanol:water (90:10, by volume) containing 2mM ammonium acetate. […]

human NK2 receptor = biological target: T1, human NK2 receptor (Homo sapiens, UniProt P21452); test: NK2 receptor affinity: competition with [3H]-NKA for binding to membranes of Chinese hamster ovary cells expressing the cloned human NK2 receptor; conditions: CHO cell membranes, 90 min, 25°C, read-out: NK2 receptor affinity (pKi) (converted)
T1 construct: expressed in transfected cells; host or cells: Chinese hamster ovary cells (membranes)
T1 sequence (P21452 1-398): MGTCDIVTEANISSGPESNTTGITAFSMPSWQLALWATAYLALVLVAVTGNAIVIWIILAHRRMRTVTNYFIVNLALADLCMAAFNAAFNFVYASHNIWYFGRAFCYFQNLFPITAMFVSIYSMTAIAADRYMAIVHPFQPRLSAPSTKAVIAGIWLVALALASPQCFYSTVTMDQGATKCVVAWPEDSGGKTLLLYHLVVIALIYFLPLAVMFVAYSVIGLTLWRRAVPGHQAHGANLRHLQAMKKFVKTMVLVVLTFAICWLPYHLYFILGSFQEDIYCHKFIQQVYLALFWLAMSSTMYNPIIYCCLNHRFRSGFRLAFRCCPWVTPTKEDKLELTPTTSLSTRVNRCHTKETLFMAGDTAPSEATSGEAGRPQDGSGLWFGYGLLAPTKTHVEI
Method: The affinity of the compounds of formula (I) and their salts for the human NK2 receptor can be tested in vitro by testing their ability to compete with [^3H]-NKA (neurokinin A) for binding to membranes prepared from Chinese hamster ovary cells expressing the cloned human NK2 receptor. In this method, washed Chinese hamster ovary cell membranes are prepared as described for the previous method where IM9 cells are used instead. The membranes are incubated (90 min, 25°C) with [^3H]-NKA and with a range of concentrations of the test compound. Non-specific binding was determined in the presence of 10µM NKA.
The affinity of the compounds of Tables 1 and 2 for the human NK2 receptor was tested in vitro by testing their ability to compete with [^3H]-NKA for binding to membranes prepared from Chinese hamster ovary cells expressing the cloned human NK2 receptor using the method set out on page 9.
(§1) In Tables 1 and 2 the "pKi" measurement is the negative logarithm of the molar affinity of the test compound for the receptor as determined in radioligand binding assays using standard protocols. A 1.0 log. unit difference in either the NK2 or NK3 receptor affinity figures corresponds to a 10-fold activity difference.

NK3 receptor = biological target: T2, NK3 receptor (Cavia porcellus, UniProt P30098); test: NK3 receptor affinity: inhibition of [3H]-senktide binding to membranes from guinea pig cortex; conditions: read-out: NK3 receptor affinity (pKi) (converted)
T2 construct: membranes from guinea pig cortex; from tissue; host or cells: guinea pig cortex membranes
T2 sequence (P30098 1-440): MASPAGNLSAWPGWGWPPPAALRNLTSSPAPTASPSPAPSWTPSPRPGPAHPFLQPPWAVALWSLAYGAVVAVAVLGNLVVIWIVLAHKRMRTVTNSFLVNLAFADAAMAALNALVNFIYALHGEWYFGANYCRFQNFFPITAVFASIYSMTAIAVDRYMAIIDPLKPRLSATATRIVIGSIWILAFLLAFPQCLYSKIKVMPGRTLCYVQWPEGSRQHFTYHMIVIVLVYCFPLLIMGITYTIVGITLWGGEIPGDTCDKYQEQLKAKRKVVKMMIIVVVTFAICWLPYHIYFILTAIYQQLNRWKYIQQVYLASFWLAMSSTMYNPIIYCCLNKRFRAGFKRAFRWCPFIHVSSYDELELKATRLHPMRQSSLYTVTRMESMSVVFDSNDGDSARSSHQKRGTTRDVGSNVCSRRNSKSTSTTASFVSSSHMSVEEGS
Method: The compounds of the formula (I) and their salts can be tested for NK3 receptor affinity, in vitro, by testing their ability to inhibit [^3H]-senktide binding to membranes from guinea pig cortex using the method of Guard, et al, Br.J.Pharmacol., 99, 767-773 (1990).
The compounds of Tables 1 and 2 were tested for NK3 receptor affinity, in vitro, by the method described on pages 9 and 10 by testing their ability to inhibit [^3H]-senktide binding to membranes from guinea pig cortex using the method of Guard, et al, Br.J.Pharmacol., 99, 767-773 (1990).
as §1

| SMILES | half-life at 1 µM ([1]; pH 7.4) [h] | Ki (human NK2 receptor) [nM] | half-life at 1 µM [1] [h] | Ki (NK3 receptor) [nM] |
| --- | --- | --- | --- | --- |
| CS(=O)(=O)N1CCC(C2CN(CC[C@]3(c4ccc(Cl)c(Cl)c4)CCC(=O)N(CC4CC4)C3)C2)CC1 [Example 1, (5S)-1-(Cyclopropylmethyl)-5-(3,4-dichlorophenyl)-5-(2-[3-[1-(methylsulfonyl)-4-piperidinyl]-1-azetanyl]ethyl)tetrahydro-2(1H)-pyridinone] | 1.25 | 3.98 | – | – |
| CS(=O)(=O)N1CCC(C2CN(CC[C@]3(c4ccc(Cl)c(F)c4)CCC(=O)N(CC4CC4)C3)C2)CC1 [Example 2] | – | 2.51 | > 2 | – |
| CS(=O)(=O)N1CCC(C2CN(CC[C@]3(c4ccc(Cl)c(Cl)c4)CCC(=O)N(CCC4CC4)C3)C2)CC1 [Example 3] | – | – | 0.45 | – |
| CS(=O)(=O)N1CCC(C2CN(CC[C@]3(c4ccc(Cl)c(Cl)c4)CCC(=O)N(Cc4ccccc4)C3)C2)CC1 [Example 4] | – | 1.26 | – | – |
| CS(=O)(=O)N1CCC(C2CN(CC[C@]3(c4ccc(Cl)c(Cl)c4)CCC(=O)N(C4CCCC4)C3)C2)CC1 [Example 5] | – | 1 | – | 25.1 |
| CS(=O)(=O)N1CCC(C2CN(CC[C@]3(c4ccc(Cl)c(Cl)c4)CCC(=O)N(CC4CCCCC4)C3)C2)CC1 [Example 6] | – | 20 | – | 5.01 |
| CS(=O)(=O)N1CCC(C2CN(CC[C@]3(c4ccc(F)c(F)c4)CCC(=O)N(C4CCCCC4)C3)C2)CC1 [Example 7] | – | 3.16 | – | – |
| CCS(=O)(=O)N1CCC(C2CN(CC[C@]3(c4ccc(Cl)c(Cl)c4)CCC(=O)N(CC4CC4)C3)C2)CC1 [Example 8, (5S)-1-(Cyclopropylmethyl)-5-(3,4-dichlorophenyl)-5-(2-[3-[1-(ethylsulfonyl)-4-piperidinyl]-1-azetanyl]ethyl)tetrahydro-2(1H)-pyridinone] | – | 6.31 | – | – |
